Assay results: patent publication US20180193327A1, “PROPHYLACTIC LEUKOTRIENE INHIBITOR AND IMPLANT DISPLACEMENT THERAPY FOR PREVENTION AND TREATMENT OF CAPSULAR CONTRACTURE IN SILICONE BREAST AUGMENTATION” (priority 2017, published 2018)
Several values for one entry are separate records, joined by “and”; a condition that tells them apart may be missing. Equal values may be shown once. Marks after values point to notes of the source that are not given here.

Columns and labels:
[1] = Liver function studies (transaminases) during Accolate therapy after primary augmentation; type: in vivo, patients (women)
Procedure: At thirty days postoperatively, blood testing was performed, with a measurement of transaminase levels and liver function studies. The softness of the breast implants as well as the implant movement and position was evaluated to determine if capsular contracture was present. Patients with normal liver function studies were provided two more months of Accolate therapy. At the completion of this, two additional months of treatment, the breasts were evaluated for the presence of capsular contracture. Patients without clinical capsular contracture, Baker I and II, were completed with therapy. Patients with clinical capsular contracture, either Baker III or IV, underwent repeat liver function studies. If transaminase levels were within normal limits, an additional three months of Accolate therapy was prescribed with the continuation of breast implant displacement therapy.
If liver function studies were abnormal and transaminase levels were elevated at any time in the treatment period, Accolate therapy was immediately discontinued and repeat liver function studies were performed every 14 days until normal levels were reached. If applicable, breast implant displacement therapy was continued and patients were offered 800 units-1000 units of Vitamin E daily in lieu of Accolate. Patients undergoing treatment with Accolate were monitored with a blood testing program. Following thirty days of treatment with Accolate, patients underwent liver function studies with evaluation of transaminase enzymes, including SGOT and SGPT, or ALT and AST. Normal ranges of enzyme levels were required to continue Accolate therapy.
All patients receiving Accolate therapy underwent liver function studies four weeks following the initiation of Accolate therapy. […] Follow-up liver function studies were performed at two week intervals, until transaminases normalized. […] Liver function studies were repeated after three months of Accolate therapy for patients choosing to continue Accolate for a six month course.

[2] = test system: capsular contracture in patients undergoing primary silicone gel breast augmentation; test: Capsular contracture (Baker scale) at one year after primary silicone gel breast augmentation, retrospective review; type: in vivo, patients (women)
Procedure: The study was performed with a retrospective review of 1122 consecutive women undergoing primary, silicone gel breast augmentation. Over time, the author added leukotriene inhibitor therapy to the postoperative treatment of patients. The first group of patients were treated without leukotriene therapy. Consecutive patients agreeing to the off-label use of leukotriene inhibitors were then studied. The second group of consecutive patients was offered Singulair therapy postoperatively while all other aspects of the surgical technique and care remained the same. Finally, the author offered Accolate therapy to the final group of patients undergoing breast augmentation.
Patients chose augmentation with either a periareolar or inframammary approach. Silicone breast augmentation procedures were performed using a standardized, dual plane technique. All patients were treated with preoperative intravenous antibiotics, either a one-gram dose of cephazolin or 600 mg of clindamycin, selected based on allergy profiles. Prior to insertion of implants, triple-antibioic irrigation (50,000 U bacitracin, 1 g Ancef, 80 mg gentamicin) with the addition of 50 ml of povidone-iodine in 500 ml of normal saline was utilized. All implants were placed with power-free glove changes, and inserted through a skin barrier/nipple shield using Tegaderm dressings. The implant displacement therapy protocol was initiated on post-operative day two.
Patients that were administered Singulair were treated according to the method described in FIGS. 1 and 2 of the present disclosure. First, patients were evaluated clinically to see if they were a candidate for breast augmentation with physical examination and medical history. The medical history review included discussion and review of liver health, current medications, and potential contraindications or drug interactions with leukotriene inhibitors. Patients were then provided an informed consent for the use of Singulair, 10 mg daily. The informed consent reviewed the potential benefits and risks of this medication which is taken as an off-label indication. Breast augmentation was performed with either smooth or textured silicone or saline implants. On the day following surgery, Singulair therapy is initiated, 10 mg QD. In the first week following surgery, the implant displacement therapy protocol was begun for patients with smooth surface silicone implants. The implant displacement therapy protocol may also be performed, if indicated, for patients with mildly textured breast implants, but not with moderately textured or highly textured devices. Monitoring for side effects from Singulair was conducted by educating patients as to the common side effects and discussing with patients noted side effects. Singulair can be discontinued if the side effects are significant. At thirty days postoperatively, the softness of the breast implants as well as the implant movement and position was evaluated to determine if capsular contracture was present. Two more months of Singulair was prescribed. Following three total months of therapy, the breasts were evaluated for the presence of capsular contracture. Patients without clinical capsular contracture, Baker I and II, were completed with therapy. Patients with clinical capsular contracture, either Baker III or IV, were treated with an additional three months of Singulair therapy as prescribed with the continuation of implant displacement therapy protocol. If patients declined to take Singulair or had side effects from the medication, implant displacement therapy protocol was continued and patients were offered 800 units-1000 units of Vitamin E daily in lieu of Singulair.
Patients that were administered Accolate were treated according to the method described in FIGS. 1 and 2 of the present disclosure. First, patients were evaluated clinically to see if they were a candidate for breast augmentation with physical examination and medical history. […]

[3] = Voluntary discontinuation of Accolate after capsulectomy and implant replacement; type: in vivo; conditions: group of 279 patients
Procedure: (§1) Patients were treated with Accolate 20 mg twice daily, beginning the day after surgery. Patients with a history of hepatitis or liver disease were excluded. Patient compliance with the recommended dosage was encouraged, but patients were advised that they could discontinue the medication at any time that they experienced significant side effects. All patients receiving Accolate therapy underwent liver function studies 4 weeks after the initiation of Accolate therapy. […] Follow-up liver function studies were performed at 2-week intervals, until transaminases normalized. […] Liver function studies were repeated after 3 months of Accolate therapy for patients choosing to continue Accolate for a 6-month course.
A total of 447 consecutive patients were evaluated during the study period. A first group of 168 consecutive patients with encapsulated breast implants were studied and no leukotriene inhibitor therapy was offered postoperatively. This included 55 patients with bilateral capsular contracture. […] A second group of 279 consecutive patients with encapsulated breast implants were studied and treated with Accolate, including 87 patients with bilateral capsular contracture. There were 366 breasts with capsular contracture among patients in this group. […] Twelve patients discontinued the use of Accolate voluntarily based on cost or minor side effects and were excluded from the study.

[4] = FDA post-approval studies for the treatment of asthma; cited from earlier work
[5] = Liver function studies (transaminases) during Accolate therapy after capsulectomy and implant replacement; type: in vivo; conditions: at one month postoperatively; group of 279 patients, 20 mg twice daily
Procedure: as §1

[6] = one year following silicone gel breast augmentation
[7] = one year following silicone gel breast augmentation, patients with contracture/patients followed

## COc1cc(C(=O)NS(=O)(=O)c2ccccc2C)ccc1Cc1cn(C)c2ccc(NC(=O)OC3CCCC3)cc12 [Accolate, Zafirlukast]
[1]; at 30 days of treatment, 20 mg bid, medication discontinued
  Percentage of patients with (mild) elevation of transaminases: 0.58%
[1]; at 30 days of treatment, out of 520 treated
  Number of patients with (mild) elevation of transaminases: Three and 3/520
[1]; two patients within two weeks, one patient within four weeks
  Time for transaminases to return to normal after discontinuing the medication: four
[2]; addition of the drug in the first three months following augmentation, versus no leukotriene inhibitor
  Reduction of the encapsulation risk: over 50%
[2]; one year following primary silicone gel breast augmentation, Baker grade III or IV, three months therapy plus implant displacement protocol
  % of Patients with Capsular Contracture: 2.19%*
[2]; [6]
  Percentage of patients demonstrating capsular contracture, inframammary incision: 1.74%
  Percentage of patients demonstrating capsular contracture, periareolar incision: 2.31% and 2.38%
  Percentage of patients demonstrating capsular contracture, total (both incisions): 2.19%
[2]; [7]
  Number of patients demonstrating capsular contracture, inframammary incision: 2/115
  Number of patients demonstrating capsular contracture, total (both incisions): 8/375
[2]; primary augmentation, six months of therapy in total
  Number of patients with grade III/IV capsular contracture at three months that improved to grade II with an additional three months of therapy: five
[2]; three months of therapy after primary augmentation, result in words
  Capsular contracture rate compared with patients not treated with leukotriene inhibitors: significantly lower
[3]
  Number of patients who discontinued voluntarily based on cost or minor side effects: Twelve
[4]
  Potential significant (uncommon) risks reported: chemical hepatitis, liver failure, and even death
[5]
  Number of patients with (mild) elevation of transaminases: Two
